The text below walks through data of patent publication US7501512B2, “Chemical compounds” (SmithKline Beecham Corporation, priority 2003, dated 2009).

The first assay addresses T1, hYAK3 (Homo sapiens, UniProt O43781).
T1 construct: made in house; host or cells: baculovirus expression system in Sf9 cells
T1 sequence (O43781 124-526): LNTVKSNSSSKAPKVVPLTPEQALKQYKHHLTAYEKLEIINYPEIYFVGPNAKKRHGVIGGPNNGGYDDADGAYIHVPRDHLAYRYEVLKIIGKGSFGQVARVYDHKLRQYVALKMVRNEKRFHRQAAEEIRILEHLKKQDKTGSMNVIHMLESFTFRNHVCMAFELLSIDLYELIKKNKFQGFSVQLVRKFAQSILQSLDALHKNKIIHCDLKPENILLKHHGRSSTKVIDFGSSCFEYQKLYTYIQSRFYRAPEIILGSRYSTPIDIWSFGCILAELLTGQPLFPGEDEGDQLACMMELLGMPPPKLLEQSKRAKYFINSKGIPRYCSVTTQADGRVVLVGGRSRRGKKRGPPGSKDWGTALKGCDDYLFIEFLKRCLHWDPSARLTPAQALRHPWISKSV
Put plainly: YAK3 scintillation proximity assay using Ser164 of myelin basic protein as phosphoacceptor. The note with it: purified GST-hYak3-His6, 0.001 mM ATP, 4 μM Ser164 peptide; read-out: pIC50 values (converted). It counts as biochemical. The procedure: YAK3 Scintillation Proximity Assays Using Ser164 of Myelin Basic Protein as the Phosphoacceptor
The source of Ser164 substrate peptide The biotinylated Ser164, S164A peptide (Biotinyl-LGGRDSRAGS*PMARR-OH), sequence derived from the C-terminus of bovine myelin basic protein (MBP) with Ser162 substituted as Ala162, was purchased from California Peptide Research Inc. (Napa, Calif.), and its purity was determined by HPLC. Phosphorylation occurs at position 164 (marked S* above). The calculated molecular mass of the peptide was 2166 dalton. Solid sample was dissolved at 10 mM in DMSO, aliquoted, and stored at −20° C. until use.
hYAK3: Glutathione-S-Transferase (GST)-hYak3-His6 containing amino acid residues 124-526 of human YAK3 (aa 124-526 of SEQ ID NO 2. in U.S. Pat. No. 6,323,318) was purified from baculovirus expression system in Sf9 cells using Glutathione Sepharose 4B column chromatography followed by Ni-NTA-Agarose column chromatography. Purity greater than 65% typically was achieved. Samples, in 50 mM Tris, 150 mM NaCl, 10% glycerol, 0.1% Triton, 250 mM imidazole, 10 mM β-mercapto ethanol, pH 8.0. were stored at −80° C. until use.
Kinase assay of purified hYAK3: Assays were performed in 96 well (Costar, Catalog No. 3789) or 384 well plates (Costar, Catalog No. 3705). Reaction (in 20, 25, or 40 μl volume) mix contained in final concentrations 25 mM Hepes buffer, pH 7.4; 10 mM MgCl2; 10 mM β-mercapto ethanol; 0.0025% Tween-20; 0.001 mM ATP, 0.1 μCi of [γ-^33P]ATP; purified hYAK3 (7-14 ng/assay; 4 nM final); and 4 μM Ser164 peptide. Compounds, titrated in DMSO, were evaluated at concentrations ranging from 50 μM to 0.5 nM. […] Reactions were incubated for 2 hours at room temperature and were stopped by a 75 ul addition of […] Streptavidin Scintillation Proximity beads (Amersham Pharmacia Biotech, Catalog No. RPNQ 0007) in PBS, pH 7.4, 10 mM EDTA, 0.1% Triton X-100, 1 mM ATP. Under the assay conditions defined above, the Km (apparent) for ATP was determined to be 7.2+/−2.4 μM.
In general terms: SPA uses beads or plates that emit light when radiolabelled molecules are held near them.
For `COc1ccc2c(c1)CCn1c-2cc(Nc2c(OC)cccc2OC)nc1=O` [Ia, 2-(2,6-Dimethoxy-phenylamino)-9-methoxy-6,7-dihydro-pyrimido[6,1-a]isoquinolin-4-one], the IC50 was 0.0102 to 0.1 µM.

For `COc1ccc2c(c1)CCn1c-2cc(Nc2ccccc2Br)nc1=O` [Ie, 2-(2-Bromo-phenylamino)-9-methoxy-6,7-dihydro-pyrimido[6,1-a]isoquinolin-4-one], the IC50 was 0.102 to 1 µM.

With `COc1ccc(CNc2cc3n(c(=O)n2)CCc2cc(OC)ccc2-3)cc1` [Iz, 9-Methoxy-2-(4-methoxy-benzylamino)-6,7-dihydro-pyrimido[6,1-a]isoquinolin-4-one], the IC50 was 0.102 to 1 µM.

On to `COc1ccc2c(c1)CCn1c-2cc(NCCN(C)C)nc1=O` [Iw, 2-(2-Dimethylamino-ethylamino)-9-methoxy-6,7-dihydro-pyrimido[6,1-a]isoquinolin-4-one], for which the IC50 was 0.0102 to 0.1 µM.

A further assay deals with MAPKAP2 kinase (MK2) (Homo sapiens, UniProt P49137). The experiment in a line: MAPKAP2 kinase (MK2) enzyme assay. It counts as biochemical. The note with it: 1 nM recombinant MK2, 1 μM ATP, 1 μM peptide substrate; read-out: pIC50 values (converted). The procedure: Compounds are tested for MAPKAP2 kinase (MK2) inhibitory activity in an assay that measures the MK2 catalyzed transfer of the γ-phosphate from ATP to serine/threonine residues of a biotinylated peptide [NH2-K(biotin)-KLNRTLSVA (SynPep Corporation, USA)]. Compounds under analysis are dissolved in DMSO to 1 mM and serially diluted 3-fold with DMSO in 96 or 384-well polypropylene or polystyrene plates for a total of 10-12 different concentrations. One uL of each concentration is transferred to the corresponding well of a 96 or 384-well, white, polystyrene assay plate. Reactions are performed in a final volume of 26 uL. An ATP solution (10 uL) is added to each well, and the reaction is initiated by the addition of a MK2/peptide mix (15 uL). The ATP solution is made in H2O and consists of 2.6 μM nonradioactive ATP (SigmaUltra) and 6.5 uCi/mL [γ-^33P]-ATP (Amersham Pharmacia Biotech). The MK2/peptide mix consists of 86.7 mM HEPES (SigmaUltra), pH 7.5, 8.67 mM MgCl2 (SigmaUltra), 0.0043% Tween 20, 1.73 mM dithiothreitol (added fresh from frozen 1M stock), 1.73 μM peptide, and 1.73 nM purified recombinant MK2. Final concentrations of the assay components are 50 mM HEPES, pH 7.5, 5 mM MgCl2, 0.0025% Tween 20, 1 mM dithiothreitol, 1 μM ATP, 2.5 μCi/mL [γ-^33P]-ATP, 1 μM peptide substrate, and 1 nM MK2. The reaction is allowed to proceed for 40 minutes and is then terminated by the addition of ‘stop solution’ (20 uL), followed by the addition of ‘bead mix’ (50 uL). […] The plates are allowed to sit for approximately 8 hours and then are quantitated using a TopCount NXF™ (Packard). Alternatively, the plates are allowed to sit for at least approximately 1 hour, centrifuged at 900 rpm for 3 minutes, and then quantitated using a TopCount NXT™ (Packard). […] Percent inhibition of MK2 activity is calculated for each compound concentration using Equation [1] […]
MAPKAP2 kinase (MK2), sequence (P49137 whole entry, species assumed): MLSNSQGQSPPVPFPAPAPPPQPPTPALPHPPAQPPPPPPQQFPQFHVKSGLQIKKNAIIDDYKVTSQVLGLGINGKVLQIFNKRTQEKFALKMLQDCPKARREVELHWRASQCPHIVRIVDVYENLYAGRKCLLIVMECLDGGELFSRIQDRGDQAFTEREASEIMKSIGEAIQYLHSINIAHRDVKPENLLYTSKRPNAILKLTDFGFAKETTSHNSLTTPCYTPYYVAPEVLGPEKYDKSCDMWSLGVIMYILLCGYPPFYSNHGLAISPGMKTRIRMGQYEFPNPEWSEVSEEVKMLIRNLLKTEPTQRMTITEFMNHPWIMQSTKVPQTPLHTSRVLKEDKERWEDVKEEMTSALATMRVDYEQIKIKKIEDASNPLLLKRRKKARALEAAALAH
[formula] where Y2 is the baseline percent inhibition, Vmax is the net maximum percent inhibition (baseline subtracted), and K is the IC50. […] The results for each compound are recorded as pIC50, calculated using Equation [3]. pIC50=−log10([…]) (3)
`COc1ccc2c(c1)CCn1c-2cc(Nc2cccc(S(N)(=O)=O)c2)nc1=O` [If, 3-(9-Methoxy-4-oxo-6,7-dihydro-4H-pyrimido[6,1-a]isoquinolin-2-ylamino)-benzenesulfonamide]: the IC50 is 0.102 to 1 µM.

`COCCN(C)c1cc2n(c(=O)n1)CCc1cc(OC)ccc1-2` [Iy, 9-Methoxy-2-[(2-methoxy-ethyl)-methyl-amino]-6,7-dihydro-pyrimido[6,1-a]isoquinolin-4-one]: the IC50 is 0.01 to 0.1 µM.

In the case of `COc1ccc2c(c1)CCn1c-2cc(NCCN2CCCC2)nc1=O` [Iv, 9-Methoxy-2-(2-pyrrolidin-1-yl-ethylamino)-6,7-dihydro-pyrimido[6,1-a]isoquinolin-4-one], the IC50 was 0.01 to 0.1 µM.
